According to PMC8151276, “An Integrated Approach toward NanoBRET Tracers for Analysis of GPCR Ligand Engagement” (Molecules, 2021):

Target: T1, CCR10 (Homo sapiens, UniProt P46092)
T1 construct: purchased Promega (in-house HiBiT-GPCR construct library, NanoBRET)
T1 sequence (P46092 1-362): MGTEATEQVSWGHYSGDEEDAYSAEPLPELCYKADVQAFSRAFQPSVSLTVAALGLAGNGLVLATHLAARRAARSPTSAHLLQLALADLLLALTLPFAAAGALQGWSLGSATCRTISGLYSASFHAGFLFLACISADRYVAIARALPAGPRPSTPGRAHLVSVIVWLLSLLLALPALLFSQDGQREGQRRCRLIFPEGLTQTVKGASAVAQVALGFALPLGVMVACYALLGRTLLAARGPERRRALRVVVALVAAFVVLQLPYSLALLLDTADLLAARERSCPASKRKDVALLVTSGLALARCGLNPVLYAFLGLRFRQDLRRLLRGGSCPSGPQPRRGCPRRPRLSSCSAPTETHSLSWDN
Experiment: NanoBRET screen HiBiT-CCR10 in HEK293
Format: binding
Protocol: Each tracer candidate was screened across the entire library of HiBiT-GPCR constructs using NanoBRET as the detection modality. As depicted in Figure 4A, the specificity of interactions was evaluated through decrease in BRET due to competitive displacement of a bound tracer by excess parental compound. Each tracer was analyzed for binding to each HiBiT-GPCR fusion in the absence and in the presence of competing parental compound. Briefly, HEK293 cells were transfected with HiBiT-GPCR constructs diluted into promoterless DNA to reduce expression and maximize translocation to the cell surface. Each tracer candidate was then screened at concentrations of 1 μM and 0.1 μM across cells expressing these fusions. Cells were treated for 1.5 h with tracer either alone or in the presence of 20 μM competing parental compound (i.e., control). BRET was measured upon addition of purified LgBiT and subsequent complementation with HiBiT genetically fused to a GPCR. The specificity of interactions was assessed through a decrease in BRET signal due to competitive displacement of the bound tracer. To further gauge the robustness of these interactions, the fold response over the control (i.e., BRETtracer/BRETcontrol) was calculated. We chose a 1.5-fold response, which translates to ≥7-fold signal over noise as the minimal threshold required to score an interaction as positive.
HiBiT-GPCR DNA constructs were diluted in 10 mM Tris pH 8 to a final concentration of 0.01 μg/μL, arrayed in 96-well plates and stored at −20 °C. For transfection, HEK293 cells were suspended in Opti-MEM (without phenol red) supplemented with 2% fetal bovine serum (Seradigm) and 100 units/mL penicillin–streptomycin (Gibco) at a final concentration of 220,000 cells/mL and dispensed into white 96-well plates at 90 μL/well. Subsequent transfections and screens were carried using an Agilent Bravo Automated Liquid Handling Platform. First, the 96-well HiBiT DNA arrays were diluted 25-fold in Opti-MEM (without serum or phenol red) to a final concentration of 0.0004 μg/μL and 20 μL of the diluted DNAs were transferred into new 96-well plates. Next, promoterless carrier DNA (1 μg/μL) was diluted 25-fold (0.04 μg/μL) and then dispensed into the diluted arrays at 20 μL/well. Following brief mixing, Viafect transfection reagent (Promega) diluted 16-fold into Opti-MEM was dispensed into the plates at 40 μL/well. After mixing by pipetting, plates were incubated for 10 min on the pipetting station deck. The DNA-transfection reagent complexes were then added to plates containing cells. To facilitate the screen, 10 μL of DNA-transfection reagent complexes were added in duplicates to the top 4 and bottom 4 rows, resulting in two identical 48-well arrays per plate. Plates with transfected cells were incubated for 18–20 h at 37 °C/5% CO2. A screen of each tracer across the entire library using two different concentrations requires duplicate plates of transfected cells. Depending on the number of tracers being screened, transfections can be scaled up using the same ratios. The next day, for each tracer, four 20× screening solutions in tracer dilution buffer (Promega) were prepared: two duplicates at final concentration of 20 μM and two duplicates at a final concentration of 2 μM. […] The four resulting solutions were diluted 4-fold in Opti-MEM without serum or phenol red to generate 5× solutions (5 µM and 0.5 µM tracer +/− 100 μM competing compound). To screen the library, a BioTek MultiFlo FX liquid dispenser was used to dispense 22.5 µL of tracer solution to the top 4 rows and 22.5 µL tracer + competing compound solution to the 4 bottom rows. Plates were briefly mixed on an orbital shaker and incubated for 1.5 h at room temperature. […] Plates were briefly mixed on an orbital shaker and incubated for 15 min to allow complementation.

| SMILES | NanoBRET Fold Response (CCR10, tracer 0.1μM) | NanoBRET Fold Response (CCR10, tracer 1μM) | other results |
| --- | --- | --- | --- |
| CN1CCN(C2=Nc3cc(Cl)ccc3Nc3ccc(CNC(=O)CCOCCOCCOCCOCCNC(=O)CCc4ccc5n4[B-](F)(F)[N+]4=C(c6ccc[nH]6)C=CC4=C5)cc32)CC1 [Clozapine-b-2-NB590] | – | – | NanoBRET Fold Response (CCR10, 0.1μM tracer): 1.01; NanoBRET Fold Response (CCR10, 1μM tracer): 1.15 |
| CN(C)CCC=C1c2ccccc2CCc2ccc(C(=O)NCCNC(=O)CCOCCOCCOCCOCCNC(=O)CCc3ccc4n3[B-](F)(F)[N+]3=C(c5ccc[nH]5)C=CC3=C4)cc21 [Amitriptyline-b-2-NB590] | – | – | NanoBRET Fold Response (tracer at 0.1μM, listed as amitriptyline-b-2-NB590): 1.05; NanoBRET Fold Response (tracer at 1μM, listed as amitriptyline-b-2-NB590): 1.19 |
| CCOC(=O)c1cc(C#N)c(N2CCC(C(=O)NS(=O)(=O)Cc3ccccc3/C=C/C(=O)NCCNC(=O)CCc3ccc4n3[B-](F)(F)[N+]3=C(c5ccc[nH]5)C=CC3=C4)CC2)nc1C [AZD1283-1-NB590] | – | – | NanoBRET Fold Response (CCR10, 0.1μM): 1.00; NanoBRET Fold Response (CCR10, 1μM): 1.07 |
| CC(C)N(CC[C@H](c1ccccc1)c1cc(CCNC(=O)CCOCCOCCOCCOCCNC(=O)CCc2ccc3n2[B-](F)(F)[N+]2=C(c4ccc[nH]4)C=CC2=C3)ccc1O)C(C)C [Tolterodine-2-NB590] | 1.17 | 0.97 | – |
| CC(C)N(CC[C@H](c1ccccc1)c1cc(CCNC(=O)c2ccc(CNC(=O)CCc3ccc4n3[B-](F)(F)[N+]3=C(c5ccc[nH]5)C=CC3=C4)cc2)ccc1O)C(C)C [Tolterodine-BZ-NB590] | 1.00 | 1.08 | – |
| O=C(CCOCCOCCOCCOCCNC(=O)CCc1ccc2n1[B-](F)(F)[N+]1=C(c3ccc[nH]3)C=CC1=C2)NCCCN1CCN(C2=Nc3ccccc3Oc3ccc(Cl)cc32)CC1 [Loxapine-a-2-NB590] | 1.04 | 1.04 | – |
| CN1CCN(C2=Nc3cc(Cl)ccc3N(CC(=O)NCCOCCOCCOCCOCCNC(=O)CCc3ccc4n3[B-](F)(F)[N+]3=C(c5ccc[nH]5)C=CC3=C4)c3ccccc32)CC1 [Clozapine-c-2-NB590] | – | – | NanoBRET Fold Response (CCR10, 0.1μM tracer): 1.00; NanoBRET Fold Response (CCR10, 1μM tracer): 0.91 |
| CN(C)CCC=C1c2ccccc2CCc2ccc(C(=O)NCCNC(=O)CCOCCOCCOCCOCCNC(=O)CCc3ccc4n3[B-](F)(F)[N+]3=C(c5ccc[nH]5)C=CC3=C4)cc21 [Amitriptyline-a-2-NB590] | – | – | NanoBRET Fold Response (tracer at 0.1μM): 1.02; NanoBRET Fold Response (tracer at 1μM): 1.00 |
| Cc1nc2n(c(=O)c1CCN1CCC(c3noc4cc(F)ccc34)CC1)CCCC2OC(=O)NCCOCCOCCOCCOCCNC(=O)CCc1ccc2n1[B-](F)(F)[N+]1=C(c3ccc[nH]3)C=CC1=C2 (stereo not shown) [Risperidone-2-NB590] | – | 0.95 | – |
| COc1ccc2[nH]c(-c3ccc(CNC(=O)CCOCCOCCOCCOCCNC(=O)CCc4ccc5n4[B-](F)(F)[N+]4=C(c6ccc[nH]6)C=CC4=C5)cc3)c(CCNC(C)=O)c2n1 [AzomelatoninICO9-2-NB590] | – | – | NanoBRET Fold Response (0.1μM tracer): 0.87; NanoBRET Fold Response (1μM tracer): 1.18 |
| COc1ccccc1N1CCN(CCCCN2C(=O)c3ccc(CNC(=O)CCOCCOCCOCCOCCNC(=O)CCc4ccc5n4[B-](F)(F)[N+]4=C(c6ccc[nH]6)C=CC4=C5)cc3C2=O)CC1 [NAN-190-2-NB590] | 0.97 | 1.00 | – |
| O=C(CCc1ccc2n1[B-](F)(F)[N+]1=C(c3ccc[nH]3)C=CC1=C2)NCCOCCOCCNC(=O)OCCOCCN1CCN(C2=Nc3ccccc3Sc3ccccc32)CC1 [Quetiapine-a-2-NB590] | 1.01 | 0.94 | – |
| O=C(CCOCCOCCOCCOCCNC(=O)CCc1ccc2n1[B-](F)(F)[N+]1=C(c3ccc[nH]3)C=CC1=C2)NCCCN1CCN(C2=Nc3cc(Cl)ccc3Nc3ccccc32)CC1 [Clozapine-a-2-NB590] | – | – | NanoBRET Fold Response (CCR10, 0.1μM tracer): 1.04; NanoBRET Fold Response (CCR10, 1μM tracer): 1.01 |
| N#CN=C(NCCCOc1cccc(CN2CCCCC2)c1)NCCNC(=O)CCOCCOCCOCCOCCNC(=O)CCc1ccc2n1[B-](F)(F)[N+]1=C(c3ccc[nH]3)C=CC1=C2 [Aminopotentidine-2-NB590] | 1.00 | 1.01 | – |
| O=C(CCc1ccc2n1[B-](F)(F)[N+]1=C(c3ccc[nH]3)C=CC1=C2)NCc1ccc(C(=O)NCCOCCOCCNCC(O)COc2cccc3ccccc23)cc1 (stereo not shown) [Propranolol-3-NB590] | – | – | NanoBRET Fold Response (CCR10, 0.1μM): 1.04; NanoBRET Fold Response (CCR10, 1μM): 1.00 |
| O=C(CCc1ccc2n1[B-](F)(F)[N+]1=C(c3ccc[nH]3)C=CC1=C2)NCc1ccc(C(=O)NCCOCCC(=O)N[C@@H]2CC[C@@]3(O)[C@H]4Cc5ccc(O)c6c5[C@@]3(CCN4CC3CC3)[C@H]2O6)cc1 [Naltrexone-3-NB590] | 1.02 | 0.92 | – |
| COc1ccccc1N1CCN(CCCCN2C(=O)c3ccc(CNC(=O)CCOCCNC(=O)c4ccc(CNC(=O)CCc5ccc6n5[B-](F)(F)[N+]5=C(c7ccc[nH]7)C=CC5=C6)cc4)cc3C2=O)CC1 [NAN-190-3-NB590] | 1.04 | 1.27 | – |
| Cc1cc2c(s1)Nc1ccccc1N=C2N1CCN(CCCNC(=O)CCOCCOCCOCCOCCNC(=O)CCc2ccc3n2[B-](F)(F)[N+]2=C(c4ccc[nH]4)C=CC2=C3)CC1 [Olanzapine-a-2-NB590] | 1.01 | 0.95 | – |
| CCCn1c(=O)c2[nH]c(-c3ccc(OCC(=O)NCCNC(=O)CCOCCNC(=O)c4ccc(CNC(=O)CCc5ccc6n5[B-](F)(F)[N+]5=C(c7ccc[nH]7)C=CC5=C6)cc4)cc3)nc2n(CCC)c1=O [XAC-3-NB590] | 0.92 | 0.78 | – |
| CN(CCC=C1c2ccccc2CCc2ccccc21)C(=O)CCOCCOCCOCCOCCNC(=O)CCc1ccc2n1[B-](F)(F)[N+]1=C(c3ccc[nH]3)C=CC1=C2 [Amitriptyline-e-2-NB590] | – | – | NanoBRET Fold Response (tracer at 1μM): 1.04 |
| COc1ccc2c(n1)c(CCNC(C)=O)cn2CCNC(=O)CCc1ccc2n1[B-](F)(F)[N+]1=C(c3ccc[nH]3)C=CC1=C2 [Azamelatonin-1-NB590] | – | – | NanoBRET Fold Response (0.1μM tracer): 0.84; NanoBRET Fold Response (1μM tracer): 0.85 |
